What was measured:
[1] = test system: ALOMY; assay: Pre-emergence action against ALOMY; format: in vivo, Alopecurus myosuroides; conditions: dosage 320 g/ha, pre-emergence, scored visually after 3 weeks vs untreated controls, 100% = plants have died, 0% = like control plants
Procedure, shortened: (§1)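 Seeds sown in sandy loam in wood-fiber pots and covered with soil. Greenhouse growth; visual damage scored after 3 weeks versus untreated controls (100% = dead, 0% = like control).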

[2] = test system: AVEFA; assay: Pre-emergence action against AVEFA; format: in vivo, Avena fatua; conditions: dosage 320 g/ha, scored visually after 3 weeks vs untreated controls
Procedure, shortened: as §1

[3] = test system: CYPES; assay: Pre-emergence action against CYPES; format: in vivo, Cyperus esculentus; conditions: pre-emergence, dosage 320 g/ha, scored visually after 3 weeks vs untreated controls
Procedure, shortened: as §1

[4] = test system: ECHCG; assay: Pre-emergence action against ECHCG; format: in vivo, Echinochloa crus-galli; conditions: pre-emergence, dosage 320 g/ha, scored visually after 3 weeks vs untreated controls
Procedure, shortened: as §1

[5] = test system: LOLMU; assay: Pre-emergence action against LOLMU; format: in vivo, Lolium multiflorum; conditions: dosage 320 g/ha, scored visually after 3 weeks vs untreated controls
Procedure, shortened: as §1

[6] = test system: SETVI; assay: Pre-emergence action against SETVI; format: in vivo, Setaria viridis; conditions: pre-emergence, dosage 320 g/ha, scored visually after 3 weeks vs untreated controls
Procedure, shortened: as §1

[7] = test system: ABUTH; assay: Pre-emergence action against ABUTH; format: in vivo, Abutilon theophrasti; conditions: pre-emergence, dosage 320 g/ha, scored visually after 3 weeks vs untreated controls
Procedure, shortened: as §1

[8] = test system: AMARE; assay: Pre-emergence action against AMARE; format: in vivo, Amaranthus retroflexus; conditions: pre-emergence, dosage 320 g/ha, scored visually after 3 weeks vs untreated controls
Procedure, shortened: as §1

[9] = test system: MATIN; assay: Pre-emergence action against MATIN; format: in vivo, Matricaria inodora; conditions: Dosage 320 g/ha, pre-emergence
Procedure, shortened: as §1

[10] = test system: POLCO; assay: Pre-emergence action against POLCO; format: in vivo, Polygonum convolvulus; conditions: Dosage 320 g/ha, pre-emergence
Procedure, shortened: as §1

[11] = test system: STEME; assay: Pre-emergence action against STEME; format: in vivo, Stellaria media; conditions: Dosage 320 g/ha, pre-emergence
Procedure, shortened: as §1

[12] = test system: VIOTR; assay: Pre-emergence action against VIOTR; format: in vivo, Viola tricolor; conditions: Dosage 320 g/ha, pre-emergence
Procedure, shortened: as §1

[13] = test system: VERPE; assay: Pre-emergence action against VERPE; format: in vivo, Veronica persica; conditions: Dosage 320 g/ha, pre-emergence
Procedure, shortened: as §1

[14] = test system: ALOMY; assay: Post-emergence action against ALOMY; format: in vivo, Alopecurus myosuroides; conditions: Dosage 80 g/ha, post-emergence
Procedure, shortened: (§2)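 Post-emergence foliar spray on greenhouse plants at the one-leaf stage, using wettable-powder or emulsion-concentrate formulations in water (600 to […], plus 0.2% wetting agent). Damage scored by eye roughly 3 weeks later against untreated plants: 0% = like control, 100% = dead.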

[15] = test system: AVEFA; assay: Post-emergence action against AVEFA; format: in vivo, Avena fatua; conditions: post-emergence, dosage 80 g/ha, visual assessment about 3 weeks after treatment vs untreated controls
Procedure, shortened: as §2

[16] = test system: CYPES; assay: Post-emergence action against CYPES; format: in vivo, Cyperus esculentus; conditions: post-emergence, dosage 80 g/ha, visual assessment about 3 weeks after treatment vs untreated controls
Procedure, shortened: as §2

[17] = test system: ECHCG; assay: Post-emergence action against ECHCG; format: in vivo, Echinochloa crus-galli; conditions: post-emergence, dosage 80 g/ha, visual assessment about 3 weeks after treatment vs untreated controls
Procedure, shortened: as §2

[18] = test system: LOLMU; assay: Post-emergence action against LOLMU; format: in vivo, Lolium multiflorum; conditions: dosage 80 g/ha, visual assessment about 3 weeks after treatment vs untreated controls
Procedure, shortened: as §2

[19] = test system: SETVI; assay: Post-emergence action against SETVI; format: in vivo, Setaria viridis; conditions: post-emergence, dosage 80 g/ha, visual assessment about 3 weeks after treatment vs untreated controls
Procedure, shortened: as §2

[20] = test system: ABUTH; assay: Post-emergence action against ABUTH; format: in vivo, Abutilon theophrasti; conditions: post-emergence, dosage 80 g/ha, visual assessment about 3 weeks after treatment vs untreated controls
Procedure, shortened: as §2

[21] = test system: MATIN; assay: Post-emergence action against MATIN; format: in vivo, Matricaria inodora; conditions: post-emergence, dosage 80 g/ha, visual assessment about 3 weeks after treatment vs untreated controls
Procedure, shortened: as §2

[22] = test system: PHBPU; assay: Post-emergence action against PHBPU; format: in vivo, Pharbitis purpurea; conditions: post-emergence, dosage 80 g/ha
Procedure, shortened: as §2

[23] = test system: POLCO; assay: Post-emergence action against POLCO; format: in vivo, Polygonum convolvulus; conditions: post-emergence, dosage 80 g/ha
Procedure, shortened: as §2

[24] = test system: STEME; assay: Post-emergence action against STEME; format: in vivo, Stellaria media; conditions: post-emergence, dosage 80 g/ha
Procedure, shortened: as §2

[25] = test system: VIOTR; assay: Post-emergence action against VIOTR; format: in vivo, Viola tricolor; conditions: post-emergence, dosage 80 g/ha
Procedure, shortened: as §2

[26] = test system: VERPE; assay: Post-emergence action against VERPE; format: in vivo, Veronica persica; conditions: dosage 80 g/ha
Procedure, shortened: as §2

[27] = test system: PHBPU; assay: Pre-emergence action against PHBPU; format: in vivo, Pharbitis purpurea; conditions: Dosage 320 g/ha, pre-emergence
Procedure, shortened: as §1

[28] = test system: AMARE; assay: Post-emergence action against AMARE; format: in vivo, Amaranthus retroflexus; conditions: post-emergence, dosage 80 g/ha, visual assessment about 3 weeks after treatment vs untreated controls
Procedure, shortened: as §2

CC(=O)c1c(Cl)ccc(C(=O)Nc2nnnn2C)c1Cl [1-114]
pest or weed control at 320 g/ha ([1]; Alopecurus myosuroides, 504 h, read-out: Pre-emergence action against ALOMY (herbicidal activity in percent)): 90%
pest or weed control at 320 g/ha ([2]; Avena fatua, 504 h, read-out: Pre-emergence action against AVEFA (herbicidal activity)): 100%
pest or weed control at 320 g/ha ([3]; Cyperus esculentus, 504 h, read-out: Pre-emergence action against CYPES (herbicidal activity)): 100%
pest or weed control at 320 g/ha ([4]; Echinochloa crus-galli, 504 h, read-out: Pre-emergence action against ECHCG (herbicidal activity)): 100%
pest or weed control at 320 g/ha ([5]; Lolium multiflorum, 504 h, read-out: Pre-emergence action against LOLMU (herbicidal activity)): 100%
pest or weed control at 320 g/ha ([6]; Setaria viridis, 504 h, read-out: SETVI (Table B8, pre-emergence herbicidal activity)): 100%
pest or weed control at 320 g/ha ([7]; Abutilon theophrasti, 504 h, read-out: Pre-emergence action against ABUTH (herbicidal activity)): 100%
pest or weed control at 320 g/ha ([8]; Amaranthus retroflexus, 504 h, read-out: Pre-emergence action against AMARE (herbicidal activity)): 100%
pest or weed control at 320 g/ha ([9]; Tripleurospermum inodorum, 504 h): 100%
pest or weed control at 320 g/ha ([10]; Fallopia convolvulus, 504 h): 90%
pest or weed control at 320 g/ha ([11]; Stellaria media, 504 h): 90%
pest or weed control at 320 g/ha ([12]; Viola tricolor, 504 h): 100%
pest or weed control at 320 g/ha ([13]; Veronica persica, 504 h): 100%
pest or weed control at 80 g/ha ([14]; Alopecurus myosuroides, 504 h): 80%
pest or weed control at 80 g/ha ([15]; Avena fatua, 504 h, read-out: Post-emergence action against AVEFA (herbicidal action in percent)): 90%
pest or weed control at 80 g/ha ([16]; Cyperus esculentus, 504 h, read-out: Post-emergence action against CYPES (herbicidal action in percent)): 80%
pest or weed control at 80 g/ha ([17]; Echinochloa crus-galli, 504 h, read-out: Post-emergence action against ECHCG (herbicidal action in percent)): 90%
pest or weed control at 80 g/ha ([18]; Lolium multiflorum, 504 h, read-out: Post-emergence action against LOLMU (herbicidal action in percent)): 100%
pest or weed control at 80 g/ha ([19]; Setaria viridis, 504 h, read-out: Post-emergence action against SETVI (herbicidal action in percent)): 80%
pest or weed control at 80 g/ha ([20]; Abutilon theophrasti, 504 h, read-out: Post-emergence action against ABUTH (herbicidal action in percent)): 80%
pest or weed control at 80 g/ha ([21]; Tripleurospermum inodorum, 504 h, read-out: Post-emergence action against MATIN (herbicidal action in percent)): 80%
pest or weed control at 80 g/ha ([22]; Ipomoea purpurea, 504 h): 90%
pest or weed control at 80 g/ha ([23]; Fallopia convolvulus, 504 h): 90%
pest or weed control at 80 g/ha ([24]; Stellaria media, 504 h): 100%
pest or weed control at 80 g/ha ([25]; Viola tricolor, 504 h): 90%
pest or weed control at 80 g/ha ([26]; Veronica persica, 504 h): 100%

CCn1nnnc1NC(=O)c1ccc(Cl)c(C(=O)C2CC2)c1Cl [2-116]
Pre-emergence action against ALOMY (herbicidal activity in percent) [1]: 100%
Pre-emergence action against AVEFA (herbicidal activity) [2]: 90%
Pre-emergence action against CYPES (herbicidal activity) [3]: 90%
Pre-emergence action against ECHCG (herbicidal activity) [4]: 100%
Pre-emergence action against LOLMU (herbicidal activity) [5]: 100%
SETVI (Table B8, pre-emergence herbicidal activity) [6]: 100%
Pre-emergence action against ABUTH (herbicidal activity) [7]: 100%
Pre-emergence action against AMARE (herbicidal activity) [8]: 100%
Pre-emergence action against MATIN [9]: 100%
Pre-emergence action against PHBPU [27]: 90%
Pre-emergence action against POLCO [10]: 90%
Pre-emergence action against STEME [11]: 90%
Pre-emergence action against VIOTR [12]: 100%
Pre-emergence action against VERPE [13]: 100%
Post-emergence action against ALOMY [14]: 80%
Post-emergence action against AVEFA (herbicidal action in percent) [15]: 90%
Post-emergence action against CYPES (herbicidal action in percent) [16]: 80%
Post-emergence action against ECHCG (herbicidal action in percent) [17]: 90%
Post-emergence action against LOLMU (herbicidal action in percent) [18]: 90%
Post-emergence action against SETVI (herbicidal action in percent) [19]: 90%
Post-emergence action against ABUTH (herbicidal action in percent) [20]: 80%
Post-emergence action against AMARE (herbicidal action in percent) [28]: 90%
Post-emergence action against MATIN (herbicidal action in percent) [21]: 90%
Post-emergence action against PHBPU [22]: 100
Post-emergence action against POLCO [23]: 90
Post-emergence action against STEME [24]: 90
Post-emergence action against VIOTR [25]: 100
Post-emergence action against VERPE [26]: 90
